The values below come from paper PMC7034945 (RSC Advances, 2019).

Some results are limits rather than exact numbers.

One data set has as its system HIV-1 NL4-3 virus. The data set is described as follows: Anti-HIV-1 activity, multicycle assay with HIV-1 NL4-3 in TZM-bl cells. The data set is classed as cell-based. To be noted: for anti-HIV-1 activity (in words): at the test concentration.
For another data set, the system named is TZM-bl cells. To be noted: Table 2; uninfected TZM-bl cells; NA = no cytotoxicity at the test concentration.
A short description of the next data set: in vitro. The conditions noted are these: human.
The mark [1] stands for this setting: Table 2, HIV-1 NL4-3, TZM-bl cells, NA = no anti-HIV-1 activity at the test concentration.
Setting [2] is: Human immunodeficiency virus 1, NL43, TZM-bl.
Setting [3] is: Caco-2, pH 7.4, Mean Papp A to B, Caco-2, 2 μM, 2 hours, pH 7.40.
[4] abbreviates: Caco-2, pH 7.4, Rank Papp, Caco-2, A to B, permeability class.
[5] abbreviates: Caco-2, pH 7.4, apparent permeability (Papp), Caco-2 cells.

A word on the EC50: it is the concentration at which the effect is half-maximal. Lower therefore signals an effect from little substance. The term CC50 denotes the concentration that lowers cell viability or growth by half. In turn, “3-(1-(2-(Hydroxymethyl)-5-(5-methyl-2,6-dioxo-1,2,3,6-tetrahydropyridin-3-yl)tetrahydrofuran-3-yl)-1H-1,2,3-triazol-4-yl)-N-((S)-1-((4-methoxyphenyl)(methyl)amino)-1-oxo-3-phenylpropan-2-yl)benzamide [III-15o]” gave an EC50 in the data set on HIV-1 NL4-3 virus (setting [1]) greater than 29.4 µM. In the data set with TZM-bl cells, this compound came in with a CC50 greater than 29.4 µM. For `COc1ccc(N(C)C(=O)[C@H](Cc2cc(F)cc(F)c2)NC(=O)c2cccc(-c3cn(Cc4cccc5ccccc45)nn3)c2)cc1` [II-10k, (S)-N-(3-(3,5-Difluorophenyl)-1-((4-methoxyphenyl)(methyl)amino)-1-oxopropan-2-yl)-3-(1-(naphthalen-1-ylmethyl)-1H-1,2,3-triazol-4-yl)benzamide], the EC50 in the data set on HIV-1 NL4-3 virus (setting [2]) is greater than 31.7 µM. As for `COC(=O)Cn1cc(-c2cccc(C(=O)N[C@@H](Cc3cc(F)cc(F)c3)C(=O)N(C)c3ccc(OC)cc3)c2)nn1` [II-10l, Methyl (S)-2-(4-(3-((3-(3,5-difluorophenyl)-1-((4-methoxyphenyl)(methyl)amino)-1-oxopropan-2-yl)carbamoyl)phenyl)-1H-1,2,3-triazol-1-yl)acetate], the “anti-HIV-1 activity (in words)” value in the data set on HIV-1 NL4-3 virus (TZM-bl cells) is given as “lost anti-HIV-1 activity completely”. As to `CCOC(=O)Cn1cc(-c2cccc(C(=O)N[C@@H](Cc3cc(F)cc(F)c3)C(=O)N(C)c3ccc(OC)cc3)c2)nn1` [II-10m, Ethyl (S)-2-(4-(3-((3-(3,5-difluorophenyl)-1-((4-methoxyphenyl)(methyl)amino)-1-oxopropan-2-yl)carbamoyl)phenyl)-1H-1,2,3-triazol-1-yl)acetate], the “anti-HIV-1 activity (in words)” value with HIV-1 NL4-3 virus (TZM-bl cells) is “lost anti-HIV-1 activity completely”.

For `COC(=O)CCCn1cc(-c2cccc(C(=O)N[C@@H](Cc3cc(F)cc(F)c3)C(=O)N(C)c3ccc(OC)cc3)c2)nn1` [II-10n, Methyl (S)-4-(4-(3-((3-(3,5-difluorophenyl)-1-((4-methoxyphenyl)(methyl)amino)-1-oxopropan-2-yl)carbamoyl)phenyl)-1H-1,2,3-triazol-1-yl)butanoate], the EC50 in the data set on HIV-1 NL4-3 virus (setting [2]) was greater than 33.8 µM. The “anti-HIV-1 activity (in words)” value with HIV-1 NL4-3 virus (TZM-bl cells) was “lost anti-HIV-1 activity completely”. `COc1ccc(N(C)C(=O)[C@H](Cc2ccccc2)NC(=O)c2cccc(-c3cn(Cc4ccccc4[N+](=O)[O-])nn3)c2)cc1` [III-15a, (S)-N-(1-((4-Methoxyphenyl)(methyl)amino)-1-oxo-3-phenylpropan-2-yl)-3-(1-(2-nitrobenzyl)-1H-1,2,3-triazol-4-yl)benzamide] returned an EC50 with HIV-1 NL4-3 virus (setting [2]) greater than 33.9 µM. As for `COc1ccc(N(C)C(=O)[C@H](Cc2ccccc2)NC(=O)c2cccc(-c3cn(Cc4cccc([N+](=O)[O-])c4)nn3)c2)cc1` [III-15b, (S)-N-(1-((4-Methoxyphenyl)(methyl)amino)-1-oxo-3-phenylpropan-2-yl)-3-(1-(3-nitrobenzyl)-1H-1,2,3-triazol-4-yl)benzamide], the EC50 in the data set with HIV-1 NL4-3 virus (setting [2]) was greater than 33.9 µM.

Consider `COc1ccc(N(C)C(=O)[C@H](Cc2ccccc2)NC(=O)c2cccc(-c3cn(Cc4ccc([N+](=O)[O-])cc4)nn3)c2)cc1` [III-15c, (S)-N-(1-((4-Methoxyphenyl)(methyl)amino)-1-oxo-3-phenylpropan-2-yl)-3-(1-(4-nitrobenzyl)-1H-1,2,3-triazol-4-yl)benzamide], for which the EC50 in the data set with HIV-1 NL4-3 virus (setting [2]) was greater than 33.9 µM. Take `COc1ccc(N(C)C(=O)[C@H](Cc2ccccc2)NC(=O)c2cccc(-c3cn(Cc4ccc(C(N)=O)cc4)nn3)c2)cc1` [III-15d, (S)-3-(1-(4-Carbamoylbenzyl)-1H-1,2,3-triazol-4-yl)-N-(1-((4-methoxyphenyl)(methyl)amino)-1-oxo-3-phenylpropan-2-yl)benzamide]: in the data set on HIV-1 NL4-3 virus (setting [2]), the midpoint of the response, the EC50, lay at 26.2 ± 7.3 µM. Further, in the data set with HIV-1 NL4-3 virus (TZM-bl cells), the “anti-HIV-1 activity (in words)” value is on record as “exhibited anti-HIV-1 activity at the test concentration”. Moreover, the “SI (selectivity index, ratio of CC50/EC50)” value with HIV-1 NL4-3 virus (Table 2, TZM-bl cells) is greater than 1.30.

In the data set with HIV-1 NL4-3 virus (setting [2]), `COc1ccc(N(C)C(=O)[C@H](Cc2ccccc2)NC(=O)c2cccc(-c3cn(CC(=O)Nc4ccccc4)nn3)c2)cc1` [III-15e, (S)-N-(1-((4-Methoxyphenyl)(methyl)amino)-1-oxo-3-phenylpropan-2-yl)-3-(1-(2-oxo-2-(phenylamino)ethyl)-1H-1,2,3-triazol-4-yl)benzamide] displayed an EC50 greater than 34 µM. For `COc1ccc(N(C)C(=O)[C@H](Cc2ccccc2)NC(=O)c2cccc(-c3cn(Cc4ccc(S(N)(=O)=O)cc4)nn3)c2)cc1` [III-15f, (S)-N-(1-((4-Methoxyphenyl)(methyl)amino)-1-oxo-3-phenylpropan-2-yl)-3-(1-(4-sulfamoylbenzyl)-1H-1,2,3-triazol-4-yl)benzamide], in the data set on HIV-1 NL4-3 virus (setting [2]), the EC50 is greater than 32 µM. For `COc1ccc(N(C)C(=O)[C@H](Cc2ccccc2)NC(=O)c2cccc(-c3cn(CCCc4ccccc4)nn3)c2)cc1` [III-15g, (S)-N-(1-((4-Methoxyphenyl)(methyl)amino)-1-oxo-3-phenylpropan-2-yl)-3-(1-(3-phenylpropyl)-1H-1,2,3-triazol-4-yl)benzamide], the EC50 in the data set on HIV-1 NL4-3 virus (setting [2]) was greater than 34.9 µM. Compound `COc1ccc(N(C)C(=O)[C@H](Cc2ccccc2)NC(=O)c2cccc(-c3cn(Cc4ccc5ccccc5c4)nn3)c2)cc1` [III-15j, (S)-N-(1-((4-Methoxyphenyl)(methyl)amino)-1-oxo-3-phenylpropan-2-yl)-3-(1-(naphthalen-2-ylmethyl)-1H-1,2,3-triazol-4-yl)benzamide] showed a concentration for a half-maximal effect (EC50) in the data set with HIV-1 NL4-3 virus (setting [2]) greater than 33.6 µM. `COc1ccc(N(C)C(=O)[C@H](Cc2ccccc2)NC(=O)c2cccc(-c3cn(Cc4cccc5ccccc45)nn3)c2)cc1` [III-15k, (S)-N-(1-((4-Methoxyphenyl)(methyl)amino)-1-oxo-3-phenylpropan-2-yl)-3-(1-(naphthalen-1-ylmethyl)-1H-1,2,3-triazol-4-yl)benzamide] yielded an EC50 in the data set with HIV-1 NL4-3 virus (setting [2]) greater than 33.6 µM. As usually defined, the Papp A→B is the apparent permeability from the apical to the basolateral side of a cell layer. For `COCCc1ccc(OCC(O)CNC(C)C)cc1` (stereo not shown) [Metoprolol], the Papp A→B is 16.4 ×10⁻⁶ cm/s in “in vitro” (setting [3]), greater than 2.5 ×10⁻⁶ cm/s in “in vitro” (setting [4]) and 16.4 ×10⁻⁶ cm/s in “in vitro” (setting [5]). For `CC(C)(C)NCC(O)COc1cccc2c1CC(O)C(O)C2` (stereo not shown) [Nadolol], the Papp A→B is 0.08 ×10⁻⁶ cm/s in “in vitro” (setting [3]), less than 0.5 ×10⁻⁶ cm/s in the data set “in vitro” (setting [4]) and 0.08 ×10⁻⁶ cm/s in the data set “in vitro” (setting [5]).

Regarding “(S)-N-(1-((4-Methoxyphenyl)(methyl)amino)-1-oxo-3-phenylpropan-2-yl)-3-(1-(naphthalen-1-ylmethyl)-1H-1,2,3-triazol-4-yl)benzamide [III-15l]”, the “anti-HIV-1 activity (in words)” value in the data set on HIV-1 NL4-3 virus (TZM-bl cells) is reported as “lost anti-HIV-1 activity completely”. Consider “(S)-N-(1-((4-Methoxyphenyl)(methyl)amino)-1-oxo-3-phenylpropan-2-yl)-3-(1-(quinolin-2-yl)-1H-1,2,3-triazol-4-yl)benzamide [III-15i]”, for which the EC50 in the data set with HIV-1 NL4-3 virus (setting [1]) was greater than 34.3 µM. In the data set on TZM-bl cells, the CC50 was greater than 34.3 µM. Consider “(S)-N-(3-(3,5-Difluorophenyl)-1-((4-methoxyphenyl)(methyl)amino)-1-oxopropan-2-yl)-3-(1-(quinolin-2-yl)-1H-1,2,3-triazol-4-yl)benzamide [II-10i]”, for which the “anti-HIV-1 activity (in words)” value in the data set with HIV-1 NL4-3 virus (TZM-bl cells) was “exhibited anti-HIV-1 activity at the test concentration”. The same compound displayed an EC50 in the data set on HIV-1 NL4-3 virus (setting [1]) of 21.5 ± 4.53 µM. Moreover, in the data set on TZM-bl cells, the CC50 is greater than 32.3 µM. For “Methyl (S)-2-(4-(3-((1-((4-methoxyphenyl)(methyl)amino)-1-oxo-3-phenylpropan-2-yl)carbamoyl)phenyl)-1H-1,2,3-triazol-1-yl)acetate [III-15m]”, in the data set with HIV-1 NL4-3 virus (TZM-bl cells), the “anti-HIV-1 activity (in words)” value is reported as “lost anti-HIV-1 activity completely”.
